Reference: PMC11277489, “Novel Piperazine Derivatives of Vindoline as Anticancer Agents” (International Journal of Molecular Sciences, 2024)
Where two headings read alike, the source gives them in different places.

Experiments:
Format in all cases: cell-based
[1] = tested on: SK-MEL-2; test: NCI60 five-dose screen, Melanoma; settings: Homo sapiens; SK-MEL-2, Melanoma; five-dose screen; read-out: GI50
[2] = tested on: KM12; test: NCI60 five-dose screen, Colon Cancer; settings: Homo sapiens; KM12, Colon Cancer; five-dose screen; read-out: GI50
[3] = tested on: UACC-62; test: NCI60 five-dose screen, Melanoma; settings: Homo sapiens; UACC-62, Melanoma; five-dose screen; read-out: GI50
[4] = tested on: RXF 393; test: NCI60 five-dose screen, Renal Cancer; settings: Homo sapiens, RXF 393, Renal Cancer
[5] = tested on: M14; test: NCI60 five-dose screen, Melanoma; settings: Homo sapiens; M14, Melanoma; five-dose screen; read-out: GI50
[6] = tested on: 60 human tumor cell lines (NCI60); test: NCI60 five-dose screen, whole panel and sub-panel means; settings: read-out: GI50 Mean
[7] = tested on: HOP-62; test: NCI60 five-dose screen, Non-small Cell Lung Cancer; settings: Homo sapiens; HOP-62, Non-small Cell Lung Cancer; five-dose screen; read-out: GI50
[8] = tested on: ACHN; test: NCI60 five-dose screen, Renal Cancer; settings: Homo sapiens, Renal Cancer, five-dose screen, read-out: GI50
[9] = tested on: CCRF-CEM; test: NCI60 five-dose screen, Leukemia; settings: Homo sapiens, Leukemia, five-dose screen, read-out: GI50
[10] = tested on: SR; test: NCI60 five-dose screen, Leukemia; settings: Homo sapiens, Leukemia, five-dose screen, read-out: GI50
[11] = tested on: A549/ATCC; test: NCI60 five-dose screen, Non-small Cell Lung Cancer; settings: Homo sapiens; A549/ATCC, Non-small Cell Lung Cancer; five-dose screen; read-out: GI50
[12] = tested on: SN12C; test: NCI60 five-dose screen, Renal Cancer; settings: Homo sapiens, Renal Cancer, five-dose screen, read-out: GI50
[13] = tested on: COLO 205; test: NCI60 five-dose screen, Colon Cancer; settings: Homo sapiens; COLO 205, Colon Cancer; five-dose screen; read-out: GI50
[14] = tested on: SF-539; test: NCI60 five-dose screen, CNS Cancer; settings: Homo sapiens; SF-539, CNS Cancer; five-dose screen; read-out: GI50
[15] = tested on: SF-295; test: NCI60 five-dose screen, CNS Cancer; settings: Homo sapiens; SF-295, CNS Cancer; five-dose screen; read-out: GI50
[16] = tested on: SK-OV-3; test: NCI60 five-dose screen, Ovarian Cancer; settings: Homo sapiens; SK-OV-3, Ovarian Cancer; five-dose screen; read-out: GI50
[17] = tested on: HCT-116; test: NCI60 five-dose screen, Colon Cancer; settings: Homo sapiens; HCT-116, Colon Cancer; five-dose screen; read-out: GI50
[18] = tested on: SNB-19; test: NCI60 five-dose screen, CNS Cancer; settings: Homo sapiens; SNB-19, CNS Cancer; five-dose screen; read-out: GI50
[19] = tested on: MOLT-4; test: NCI60 five-dose screen, Leukemia; settings: Homo sapiens; MOLT-4, Leukemia; five-dose screen; read-out: GI50
[20] = tested on: DU-145; test: NCI60 five-dose screen, Prostate Cancer; settings: Homo sapiens; DU-145, Prostate Cancer; five-dose screen; read-out: GI50
[21] = tested on: RPMI-8226; test: NCI60 five-dose screen, Leukemia; settings: Homo sapiens; RPMI-8226, Leukemia; five-dose screen; read-out: GI50
[22] = tested on: UO-31; test: NCI60 five-dose screen, Renal Cancer; settings: Homo sapiens; UO-31, Renal Cancer; five-dose screen; read-out: GI50
[23] = tested on: BT-549; test: NCI60 five-dose screen, Breast Cancer; settings: Homo sapiens; BT-549, Breast Cancer; five-dose screen; read-out: GI50
[24] = tested on: NCI-H322M; test: NCI60 five-dose screen, Non-small Cell Lung Cancer; settings: Homo sapiens, Non-small Cell Lung Cancer, five-dose screen, read-out: GI50
[25] = tested on: A498; test: NCI60 five-dose screen, Renal Cancer; settings: Homo sapiens; A498, Renal Cancer; five-dose screen; read-out: GI50
[26] = tested on: HS 578T; test: NCI60 five-dose screen, Breast Cancer; settings: Homo sapiens; HS 578T, Breast Cancer; five-dose screen; read-out: GI50
[27] = tested on: 786–0; test: NCI60 five-dose screen, Renal Cancer; settings: Homo sapiens; 786–0, Renal Cancer; five-dose screen; read-out: GI50
[28] = tested on: SW-620; test: NCI60 five-dose screen, Colon Cancer; settings: Homo sapiens; SW-620, Colon Cancer; five-dose screen; read-out: GI50
[29] = tested on: MDA-MB-468; test: NCI60 five-dose screen, Breast Cancer; settings: Homo sapiens; MDA-MB-468, Breast Cancer; five-dose screen; read-out: GI50
[30] = tested on: MCF7; test: NCI60 five-dose screen, Breast Cancer; settings: Homo sapiens; MCF7, Breast Cancer; five-dose screen; read-out: GI50
[31] = tested on: OVCAR-5; test: NCI60 five-dose screen, Ovarian Cancer; settings: Homo sapiens; OVCAR-5, Ovarian Cancer; five-dose screen; read-out: GI50
[32] = tested on: OVCAR-3; test: NCI60 five-dose screen, Ovarian Cancer; settings: Homo sapiens; OVCAR-3, Ovarian Cancer; five-dose screen; read-out: GI50
[33] = tested on: PC-3; test: NCI60 five-dose screen, Prostate Cancer; settings: Homo sapiens; PC-3, Prostate Cancer; five-dose screen; read-out: GI50
[34] = tested on: SK-MEL-28; test: NCI60 five-dose screen, Melanoma; settings: Homo sapiens; SK-MEL-28, Melanoma; five-dose screen; read-out: GI50
[35] = tested on: MDA-MB231ATCC; test: NCI60 five-dose screen, Breast Cancer; settings: Homo sapiens, MDA-MB-231; MDA-MB231ATCC, Breast Cancer; five-dose screen; read-out: GI50
[36] = Homo sapiens, 60 cell, mean over all 60 cell lines
[37] = Homo sapiens, mean over Breast Cancer panel
[38] = Homo sapiens, mean over CNS Cancer panel
[39] = Homo sapiens, mean over Colon Cancer panel
[40] = Homo sapiens, mean over Leukemia panel
[41] = Homo sapiens, mean over Melanoma panel
[42] = Homo sapiens, mean over Non-small Cell Lung Cancer panel
[43] = Homo sapiens, mean over Ovarian Cancer panel
[44] = Homo sapiens, mean over Prostate Cancer panel
[45] = Homo sapiens, mean over Renal Cancer panel

## CC[C@]12C=CCN3CC[C@@]4(c5ccc(OC)cc5N(C)[C@H]4[C@@](O)(C(=O)OC)[C@@H]1OC(=O)CCC(=O)N1CCN(c4ccc(C(F)(F)F)cc4)CC1)[C@@H]32 [Compound 28]
[1]
  GI50: 2.75 µM
[2]
  GI50: 4.79 µM
[3]
  GI50: 2.88 µM
[4]
  GI50: 2.29 µM
[5]
  GI50: 2.4 µM
[6]; [36]
  GI50: < 4 µM
[6]; [37]
  GI50: 3.44 µM
[6]; [38]
  GI50: 3.69 µM
[6]; [39]
  GI50: 3.16 µM
[6]; [40]
  GI50: 1.81 µM
[6]; [41]
  GI50: 3.63 µM
[6]; [42]
  GI50: 4.23 µM
[6]; [43]
  GI50: 3.92 µM
[6]; [44]
  GI50: 3.85 µM
[6]; [45]
  GI50: 3.67 µM
[6]; mean over all 60 cell lines
  GI50: 3.55 µM
[7]
  GI50: 5.5 µM
[8]
  GI50: 3.8 µM
[9]
  GI50: 1.66 µM
[10]
  GI50: 2.29 µM
[11]
  GI50: 2.75 µM
[12]
  GI50: 4.17 µM
[13]
  GI50: 1.91 µM
[14]
  GI50: 5.25 µM
[15]
  GI50: 3.16 µM
[16]
  GI50: 3.89 µM
[17]
  GI50: 3.31 µM
[18]
  GI50: 4.37 µM
[19]
  GI50: 1.17 µM
[20]
  GI50: 5.25 µM
[21]
  GI50: 2.57 µM
[22]
  GI50: 2.29 µM
[23]
  GI50: 3.31 µM
[24]
  GI50: 10 µM
[25]
  GI50: 5.75 µM
[26]
  GI50: 4.79 µM
[27]
  GI50: 5.01 µM
[28]
  GI50: 3.98 µM
[29]
  GI50: 1.86 µM
[30]
  GI50: 2.95 µM
[31]
  GI50: 5.25 µM
[32]
  GI50: 3.72 µM
[33]
  GI50: 2.45 µM
[34]
  GI50: 5.01 µM
[35]
  GI50: 4.17 µM

## CCC12C=CCN3CCC4(c5cc(NC(=O)CN6CCN(C(c7ccc(F)cc7)c7ccc(F)cc7)CC6)c(OC)cc5N(C)C4C(O)(C(=O)OC)C1OC(C)=O)C32 (centres unmarked) [Compound 20]
[1]
  GI50: 3.02 µM
[2]
  GI50: 3.98 µM
[3]
  GI50: 8.13 µM
[4]
  GI50: 2.69 µM
[5]
  GI50: 4.07 µM
[6]; [36]
  GI50: 6.27 µM
[6]; [37]
  GI50: 4.52 µM
[6]; [38]
  GI50: 4.4 µM
[6]; [39]
  GI50: 3.4 µM
[6]; [40]
  GI50: 2.38 µM
[6]; [41]
  GI50: 5.6 µM
[6]; [42]
  GI50: 15.7 µM
[6]; [43]
  GI50: 5.3 µM
[6]; [44]
  GI50: 5.39 µM
[6]; [45]
  GI50: 5.23 µM
[7]
  GI50: 89.1 µM
[8]
  GI50: 4.9 µM
[9]
  GI50: 2.88 µM
[10]
  GI50: 2 µM
[11]
  GI50: 4.37 µM
[12]
  GI50: 4.9 µM
[13]
  GI50: 2.45 µM
[14]
  GI50: 4.07 µM
[15]
  GI50: 3.47 µM
[16]
  GI50: 5.89 µM
[17]
  GI50: 3.09 µM
[18]
  GI50: 5.89 µM
[19]
  GI50: 2.14 µM
[20]
  GI50: 6.31 µM
[21]
  GI50: 1.91 µM
[22]
  GI50: 5.25 µM
[23]
  GI50: 2.57 µM
[24]
  GI50: 12 µM
[25]
  GI50: 5.62 µM
[26]
  GI50: 5.89 µM
[27]
  GI50: 7.76 µM
[28]
  GI50: 3.98 µM
[29]
  GI50: 3.02 µM
[30]
  GI50: 2.95 µM
[31]
  GI50: 3.55 µM
[32]
  GI50: 4.37 µM
[33]
  GI50: 4.47 µM
[34]
  GI50: 12.3 µM
[35]
  GI50: 9.12 µM
